From US5391817A, “Biaryl phospholipase A2 inhibitors” (Bristol-Myers Squibb, priority 1993, dated 1995)

What follows are compounds tested against T1, PLA2 (Homo sapiens, UniProt P14555) (assay: PLA2 Inhibition Assay (14C-oleate labeled E. coli membrane substrate)). Details: 100 μM; PLA2 from human platelets; pH 7, 37° C.
T1 construct: The enzyme is isolated from human platelets; from tissue; host or cells: human platelets
T1 sequence (P14555 21-144): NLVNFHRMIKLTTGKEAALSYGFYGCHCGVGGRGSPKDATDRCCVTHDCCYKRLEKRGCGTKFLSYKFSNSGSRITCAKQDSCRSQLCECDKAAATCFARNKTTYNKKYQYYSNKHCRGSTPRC
Format: biochemical
Experimental: The method used is similar to that reported by Franson, et al. [Jesse, R. L. and Franson R. C., Biochim. Biophys. Acta 575: 467-470 (1979); Franson, R. C., Patriarca, P., and Elsback, P., J. Lipid Res. 15: 380-388 (1974)]. The enzyme is isolated from human platelets. The substrate used consists of ^14 C-oleate labeled Escherichia coli membranes. E. coli cells are grown in the presence of ^14 C-oleic acid and then autoclaved to prepare the membranes.
Various concentrations of test compounds are preincubated with PLA2 (3.6 mg/mL in a buffer consisting of 25 mM HEPES (pH 7)), 150 mM NaCl, 5.0 mM CaCl2, and 10% DMSO (v/v, test compound solvent) at 37° C. for 7 minutes. The E. coli substrate is then added (0.1 mM phospholipid, 0,005 mCi ^14 C) and the reaction is then incubated at 37° C. for 30 minutes. The reaction is then terminated by the addition of 1.9 mL tetrahydrofuran (THF), and the entire solution is applied to a solid-phase extraction column (aminopropyl resin, Analytichem). The column is rinsed with an additional 1 mL of THF. The free fatty acid product of the reaction is then eluted from the column with 1 mL 2% acetic acid in THF and collected in a scintillation vial. The amount of free fatty acid product is determined by liquid scintillation counting. The amount of inhibition produced by the test compound is calculated by comparing the counts obtained in the presence of the compound to those obtained in its absence (solvent only). Background counts were determined by performing incubations in the absence of enzyme.
Percent inhibition is determined by the equation: [formula]
In the case of `C/C(=C\c1cccc(C(=O)O)c1-c1cccc(C(=O)O)c1)c1ccc2c(c1)C(C)(C)CCC2(C)C` [Structure 11, (E)-[2-(5,6,7,8-tetrahydro-5,5,8,8-tetramethyl-2-naphthalenyl)-1-propenyl]-[1,1'-biphenyl]-6,3'-dicarboxylic acid], the inhibition at 100 µM is reported as 80%. `CCCCCCCCCCOc1ccc(COc2cccc(C(=O)O)c2-c2cccc(C(=O)O)c2)cc1OCCCCCCCCCC` [Structure 14a, 2-[(3,4-bisdecyloxy)phenyl]methoxy-[1,1'-biphenyl]-6,3'-dicarboxylic acid] gave an inhibition at 100 µM of 99%. `CC(C)=CCOc1ccc(COc2cccc(C(=O)O)c2-c2cccc(C(=O)O)c2)cc1OCC=C(C)C` [Structure 14b, 2-[3,4-bis(3-methyl-2-butenyloxy)phenyl]methoxy-[1,1'-biphenyl]-6,3'-dicarboxylic acid] showed an inhibition at 100 µM of 20%. With `CCCCCOc1ccc(COc2cccc(C(=O)O)c2-c2cccc(C(=O)O)c2)cc1OCCCCC` [Structure 14c, 2-[(3,4-bispentyloxy)phenyl]methoxy-[1,1'-biphenyl]-6,3'-dicarboxylic acid] the inhibition at 100 µM was 53%. Compound `O=C(O)c1cccc(-c2c(OCc3ccc(OC4CCCC4)c(OC4CCCC4)c3)cccc2C(=O)O)c1` [Structure 14d, 2-[(3,4-biscyclopentyloxy)phenyl]methoxy-[1,1 'biphenyl]-6,3'-dicarboxylic acid] has an inhibition at 100 µM of 73%. `CCCCCOc1ccc(COc2cccc(C(=O)O)c2-c2ccccc2)cc1O` [Structure 14e, 2-[(3-hydroxy-4-pentyloxy)phenyl]methoxy-[1,1 '-biphenyl]-6-carboxylic acid] gave an inhibition at 100 µM of 34%. In the case of `CCCCCOc1ccc(COc2cccc(C(=O)O)c2-c2ccccc2)cc1OC(C)=O` [Structure 14f, 2-[(3-acetoxy-4-pentyloxy)phenyl]methoxy-[1,1'-biphenyl]-6-carboxylic acid], the inhibition at 100 µM is reported as 30%. Work on `COc1cc(COc2cccc(C(=O)O)c2-c2ccccc2)ccc1C12CC3CC(CC(C3)C1)C2` [Structure 14g, 2-[4-(1-adamantyl)-3-methoxyphenyl]methoxy-[1,1'-biphenyl]-6-carboxylicacid] yielded an inhibition at 100 µM of 44%. `COc1cc(COc2cccc(C(=O)O)c2-c2cccc(C(=O)O)c2)ccc1C12CC3CC(CC(C3)C1)C2` [Structure 14h, 2-[4-(1-adamantyl)-3-methoxyphenyl]methoxy-[1,1,-biphenyl]-6,3'-dicarboxylic acid] gave an inhibition at 100 µM of 62%. Work on `CCCCCOc1ccc(COc2cccc(C(=O)O)c2-c2ccccc2)cc1OCCCCC` [Structure 14i, 2-[(3,4-bispentyloxy)phenyl]methoxy-[1,1'-biphenyl]-6-carboxylic acid] yielded an inhibition at 100 µM of 99%. For `CCCCCOc1ccc(COc2cccc(C(=O)O)c2-c2cccc(C(F)(F)F)c2)cc1OCCCCC` [Structure 14j, 2-[(3,4-bispentyloxy)phenyl]methoxy-[1,1'-biphenyl]-3'-trifluoromethyl-6-carboxylic acid], the inhibition at 100 µM was 98%. Work on `CCCCCCCCCCOc1ccc(COc2cccc(C(=O)O)c2-c2ccccc2)cc1` [Structure 14k, 2-[(4-decyloxy)phenyl]methoxy-[1,1'-biphenyl]-6-carboxylic acid] yielded an inhibition at 100 µM of 99%. For `CCOC(=O)c1cccc(-c2c(OCc3ccc4c(c3)C(C)(C)CCC4(C)C)cccc2C(=O)O)c1` [Structure 14l, 2-(5,6,7,8-tetrahydro-5,5,8,8-tetramethyl-2-naphthalenyl)methoxy-[1,1'-biphenyl]-6,3'-dicarboxylic acid, 3'-ethyl ester], the inhibition at 100 µM was 54%. `CC1(C)CCC(C)(C)c2cc(COc3cccc(C(=O)O)c3-c3cccc(C(=O)O)c3)ccc21` [Structure 14m, 2-(5,6,7,8-tetrahydro-5,5,8,8-tetramethyl-2-naphthalenyl)methoxy-[1,1'-biphenyl]-6,3'-dicarboxylic acid] showed an inhibition at 100 µM of 54%. Work on `CC1(C)CCC(C)(C)c2cc(COc3cccc(C(=O)O)c3-c3ccccc3)ccc21` [Structure 14n, 2-(5,6,7,8-tetrahydro-5,5,8,8-tetramethyl-2-naphthalenyl)methoxy-[1,1'-biphenyl]-6-carboxylic acid] yielded an inhibition at 100 µM of 90%. `CC(C)(C)c1ccc(-c2c(OCc3ccc4c(c3)C(C)(C)CCC4(C)C)cccc2C(=O)O)cc1` [Structure 14o, 2-(5,6,7,8-tetrahydro-5,5,8,8-tetramethyl-2-naphthalenyl)methoxy-[1,1'-biphenyl]-4'-(1,1-dimethylethyl)-6-carboxylic acid] showed an inhibition at 100 µM of 99%. `CC1(C)CCC(C)(C)c2cc(COc3cccc(C(=O)O)c3-c3ccc(CCO)cc3)ccc21` [Structure 14p, 2-(5,6,7,8-tetrahydro-5,5,8,8-tetramethyl-2-naphthalenyl)methoxy-4'-(2-hydroxy-1-ethyl)-[1,1'-biphenyl]-6-carboxylic acid] gave an inhibition at 100 µM of 88%. `CC1(C)CCC(C)(C)c2cc(COc3cccc(C(=O)O)c3-c3cccc(CC(=O)O)c3)ccc21` [Structure 14q, 6-carboxy-2-[5,6,7,8-tetrahydro-5,5,8,8-tetramethyl-2-naphthalenyl]methoxy-[1,1'-biphenyl]-3'-acetic acid] was tested, and the inhibition at 100 µM was 72%. In the case of `O=C(O)Cc1cccc(/C=C/c2ccccc2)c1-c1cccc(C(=O)O)c1` [Structure 28a, (E) 2-styryl-6-carboxymethyl-1,1'-biphenyl-3'-carboxylic acid], the inhibition at 100 µM is reported as 28%. In the case of `C/C(=C\c1cccc(CC(=O)O)c1-c1cccc(C(=O)O)c1)c1ccc2c(c1)C(C)(C)CCC2(C)C` [Structure 28b, 3'-carboxy-(E)-2-[(5,6,7,8-tetrahydro-5,5,8,8,-tetramethyl-2-naphthalenyl)-1-propenyl]-[1,1'-biphenyl]-6-acetic acid], the inhibition at 100 µM is reported as 96%. In the case of `CC1(C)CCC(C)(C)c2cc3cc(-c4cccc(CC(=O)O)c4-c4cccc(C(=O)O)c4)ccc3cc21` [Structure 28c, 3'-carboxy-2-[(1,2,3,4-tetrahydro-1,1,4,4-tetramethyl)-6-anthracenyl]-[1,1'-biphenyl]-6-acetic acid], the inhibition at 100 µM is reported as 93%. Work on `CCCCCOc1ccc(COc2cccc(CC(=O)O)c2-c2cccc(C(=O)O)c2)cc1OCCCCC` [Structure 30a, 2-[(3,4-bispentyloxy)phenyl]methoxy-3'-carboxy-[1,1'-biphenyl]-6-acetic acid] yielded an inhibition at 100 µM of 96%. In the case of `O=C(O)Cc1cccc(OCc2ccc(OC3CCCC3)c(OC3CCCC3)c2)c1-c1cccc(C(=O)O)c1` [Structure 30b, 2-[(3,4-biscyclopentyloxy)phenyl]methoxy-3'-carboxy-[1,1'-biphenyl]-6-acetic acid], the inhibition at 100 µM is reported as 79%. Compound `CCCCCCCCCCOc1ccc(COc2cccc(CC(=O)O)c2-c2cccc(C(=O)O)c2)cc1` [Structure 30c, 3'-carboxy-2-[4-decyloxyphenyl]methoxy-[1,1'-biphenyl]-6-acetic acid] has an inhibition at 100 µM of 99%. `COc1cc(COc2cccc(CC(=O)O)c2-c2cccc(C(=O)O)c2)ccc1C12CC3CC(CC(C3)C1)C2` [Structure 30d, 3'-carboxy-2-[4-(1-adamantyl)-3-methoxyphenyl]methoxy-[1,1'-biphenyl]-6-acetic acid] gave an inhibition at 100 µM of 97%. `CC1(C)CCC(C)(C)c2cc(COc3cccc(CC(=O)O)c3-c3ccccc3)ccc21` [Structure 30e, 2-(5,6,7,8-tetrahydro-5,5,8,8-tetramethyl-2-naphthalenyl)methoxy-[1,1'-biphenyl]-6-acetic acid] was tested, and the inhibition at 100 µM was 59%. Compound `CC1(C)CCC(C)(C)c2cc(COc3cccc(CC(=O)O)c3-c3cccc(C(=O)O)c3)ccc21` [Structure 30f, 3'-carboxy-2-(5,6,7,8-tetrahydro-5,5,8,8-tetramethyl-2-naphthalenyl)methoxy-[1,1'-biphenyl]-6-acetic acid] has an inhibition at 100 µM of 80%. `CC(C)=CCOc1ccc(COc2cccc(CCC(=O)O)c2-c2cccc(C(=O)O)c2)cc1OCC=C(C)C` [Structure 37a, 2-[3,4-bis(3-methyl-2-butenyloxy)phenyl]methoxy-3'-carboxy-[1,1'-biphenyl]-6-propanoic acid] was tested, and the inhibition at 100 µM was 55%. `O=C(O)CCc1cccc(OCc2ccc(OC3CCCC3)c(OC3CCCC3)c2)c1-c1cccc(C(=O)O)c1` [Structure 37b, 2-[3,4-bis(cyclopentyloxy)phenyl]methoxy-3'-carboxy-[1,1'-biphenyl]-6-propanoic acid] gave an inhibition at 100 µM of 51%. Compound `CCCCCOc1ccc(COc2cccc(CCC(=O)O)c2-c2cccc(C(=O)O)c2)cc1OCCCCC` [Structure 37c, 2-[3,4-bis (pentyloxy)phenyl]methoxy-3'-carboxy-[1,1'-biphenyl]-6-propanoic acid] has an inhibition at 100 µM of 59%. In the case of `CC1(C)CCC(C)(C)c2cc(COc3cccc(CCC(=O)O)c3-c3cccc(C(=O)O)c3)ccc21` [Structure 37d, 3'-carboxy-2-[5,6,7,8-tetrahydro-5,5,8,8-tetramethyl-2-naphthalenyl]methoxy-[1,1'-biphenyl]-6-propanoic acid], the inhibition at 100 µM is reported as 54%.
